Data on one molecule can be found in publication PMC5104769, “Concentration-Dependent Dual Mode of Zn Action at Serotonin 5-HT1A Receptors: In Vitro and In Vivo Studies” (Molecular neurobiology, 2015).

Series [1] relates to Sprague Dawley rats. Kind of series: Forced swim test (FST) in rats. The series is classed as in vivo, rat.
Procedure: The test was carried out according to the method described previously [10]. On day one of the experiment, the animals were individually placed in plexiglass cylinders (40 cm in height, 18 cm in diameter), containing 25 cm of water maintained at 24–25 °C for a 15-min habituation period. After the rats were removed from the water, they were again placed in their home cages. On the second day, the rats were again placed in the cylinders, and the total duration of immobility was measured for a 5-min test period. Zn (1 or 2 mg Zn/ kg, given as Zn hydroaspartate) and 8-OH-DPAT (0.1 or 0.3 mg/kg) were administered alone or jointly 30 min before the test. WAY-100635 (0.1 mg/kg) was administered 15 min before the Zn treatment.
Series [2] deals with T1, human 5-HT1AR stably expressed in HEK293 cells (Homo sapiens, UniProt P08908).
T1 construct: The full-length human 5HTR1A complementary DNA (cDNA); membranes prepared from the cells
T1 sequence (P08908 1-422): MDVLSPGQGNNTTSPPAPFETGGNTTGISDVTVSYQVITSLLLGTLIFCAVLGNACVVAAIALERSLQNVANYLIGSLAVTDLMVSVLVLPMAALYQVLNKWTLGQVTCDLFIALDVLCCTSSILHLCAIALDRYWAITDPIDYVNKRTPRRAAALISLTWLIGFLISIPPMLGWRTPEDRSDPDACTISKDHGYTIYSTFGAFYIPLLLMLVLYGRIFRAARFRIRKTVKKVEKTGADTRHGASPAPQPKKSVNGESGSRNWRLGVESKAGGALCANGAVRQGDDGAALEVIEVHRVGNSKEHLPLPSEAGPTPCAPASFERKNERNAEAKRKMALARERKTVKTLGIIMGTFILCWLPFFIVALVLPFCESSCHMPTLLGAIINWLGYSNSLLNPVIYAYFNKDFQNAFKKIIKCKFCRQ
Kind of series: Association and dissociation kinetic assays of [3H]-8-OH-DPAT. The series is classed as binding. The protocol: Non-specific binding was defined by the addition of 10 μM serotonin. The amount of radioligand bound to the receptor was measured at different time intervals during a total incubation of 60 min in the absence or presence of 10 and 500 μM ZnCl2. For the dissociation assay, after incubating the membranes with radioligand for 60 min to achieve equilibrium, serotonin (10 μM), either alone or together with 10 or 500 μM of ZnCl2, was added, and the specifically bound radioligand was measured after incubations of different durations (from 0 to 60 min), which were terminated by rapid filtration.

Series [3] deals with T1, human 5-HT1AR stably expressed in HEK293 cells. Kind of series: Competition and competition-like (Zn titration) binding against 2.5 nM [3H]-8-OH-DPAT. Particulars: 2.5 nM radioligand. The protocol:
The full-length human 5HTR1A complementary DNA (cDNA), which was cloned into the mammalian expression vector pcDNA3.1(+), was obtained from the Missouri S&T cDNA Resource Center (www.cdna.org). The receptor cDNA was stably transfected into human embryonic kidney cells (HEK293, ATCC) with the use of Lipofectamine 2000 (Invitrogen).
Cell pellets were thawed and homogenized in 20 volumes of 50 mM Tris–HCl buffer (pH 7.7) containing 0.1 mM EDTA and 10 mM MgCl2, using an Ultra Turrax tissue homogenizer. The pellets were then centrifuged twice at 35,000g for 20 min at 4 °C, with incubation for 15 min at 37 °C in between centrifugations. Membranes were aliquoted in tubes. Membrane protein concentrations were determined using the Pierce™ Coomassie (Bradford) Protein Assay Kit, with bovine serum albumin (BSA) as a standard.
The incubation buffer consisted of 50 mM Tris–HCl (pH 7.7), 10 mM MgCl2, 10 mM pargyline and 0.1 % ascorbic acid. Radioligand binding assays were performed by incubating 30 μg of protein of the membrane suspension in 96-well microtitre plates for 60 min at room temperature with shaking, in a total volume of 200 μl. The binding reactions were stopped by filtration through GF/C Unifilter plates using a harvester (PerkinElmer). […] Radioactivity was measured using a MicroBeta TriLux counter (PerkinElmer).

Details of series [4]: method as in PMID 20617034. Conditions: cited from earlier work.
Series [5] in a line: Body temperature in wild-type and 5-HT1A autoreceptor KO mice. The series is classed as in vivo, mouse. Particulars: Zn 5 mg/kg (Zn chloride), 30 and 60 min. An excerpt: (§1) A conditional knockout approach was used to eliminate the 5-HT1AR in the raphe nuclei in adult mice. To create the conditional 5-HT1AR knockout mice, a TPH2-Cre-ER^T2 mouse line was crossed with a flx-5-HT1A-YFP mouse line. The TPH2-Cre-ER^T2 confers specificity such that only serotonin neurons, which express tryptophan hydroxylase 2 (TPH2), can express Cre recombinase to knockout the 5-HT1AR gene and allow for […] expression. Once the mice reached adulthood (approximately 5–6 postnatal weeks), tamoxifen (180 mg/kg) was injected i.p. every day for five consecutive days (the tamoxifen binds to the ER^T2 domain and enables Cre to enter the nucleus where it can excise the 5-HT1AR gene, allowing for YFP expression as a marker of recombination). The mice were then left undisturbed for at least 14 days to allow for recombination and the turnover of endogenous 5-HT1ARs.
A separate experiment was performed to measure the effect of Zn on rectal body temperature in wild-type and 5-HT1A autoreceptor KO mice; however, in this experiment, only the higher dose of Zn (5 mg Zn/kg; Zn chloride, Sigma) was used.

Series [6] deals with 5-HT1A autoreceptor KO mice. The series is described as follows: Forced swim test (FST) in wild-type and 5-HT1A autoreceptor KO mice. Particulars: Zn 5 mg/kg 30 min before FST. The series is classed as in vivo, mouse.
Text: as §1
The behaviour of the mice in the water was recorded using a video camera. The test was performed under red lighting. The cylinder was filled with almost 4 l of water, to a depth that exceeded the distance to which the tail could extend, so the mouse could not balance on its tail at the bottom of the cylinder. […] The mice were placed in the individual glass cylinder (22 cm diameter×37 cm high) for a standard 6-min test; however, the total duration of immobility from the last 4 min of the test was analysed. […]

Take `[Zn+2]` [Zn, Zinc]: the “immobility time in the FST” value in series [1] (Zn 1 mg/kg, 30 min before test (Fig. 5a)) is reported as “not 1 mg/kg significantly decreased the immobility time”; in series [1] (Zn 2 mg/kg, 30 min before test (Fig. 5a)) it was “significantly decreased the immobility time”; in series [1] (Zn 2 and 5 mg/kg (Fig. 5b)) it was “significantly decreased the immobility time”; in series [1] (Zn given jointly with 8-OH-DPAT at doses ineffective alone, vs VEH), “significantly decreased the immobility time”; in series [6] (wild-type mice) it was “significant decrease in immobility time”. Besides, the “effect on association rate of [3H]-8-OH-DPAT” value in series [2] (10 μM of Zn ions) is recorded as “small increase in the association rate”; in series [2] (500 μM Zn), “no effect on the kon values”. For the same molecule, the “effect on dissociation rate of [3H]-8-OH-DPAT” value in series [2] (high Zn concentration (500 μM)) is recorded as “both phases were significantly reduced”; in series [2] (low Zn concentration (10 μM)), “disappearance of the fast radioligand dissociation rate”. The “increase of [3H]-8-OH-DPAT specific binding” value in series [3] (10 μM of Zn, bell-shaped titration curve) is on record as ~ 25%. In addition, in series [3] (Zn at >100 μM), the “effect on [3H]-8-OH-DPAT specific binding” value is given as “inhibition”. Besides, the “extracellular Zn level reported as neurotoxic” value in series [4] is “over 300 μM”. Besides, the “change in body temperature” value in series [5] was “decreased the body temperature of the wild-type mice”. Besides, the “decrease in the immobility time” value in series [6] (5-HT1A autoreceptor KO mice, vs VEH-treated KO mice) is recorded as 30%.
